Source: patent US20260193246A1, “METHOD OF MAKING LANIFIBRANOR” (INVENTIVA, priority 2023, published 2026)

What was measured:
Assay type in all cases: physicochemical
[1] = Angle of repose (powder flow, Electrolab EFT-01); conditions: 50 g of powder through an orifice of 25 mm; rounded average of three experiments
Description: Powder flow and the angle of repose were determined using an Electrolab EFT-01 apparatus. In a first step, powder flow is measured through various orifices (10, 15 and 25 mm). In a second step, the angle of repose is measured by the height of the cone formed by a sample of 50 g of powder passing through an orifice of 25 mm. The result obtained in the rounded average of three experiments.

[2] = Compressibility index and Hausner ratio from bulk and tapped density (Electrolab ETD-1020)
Description: The compressibility index and Hausner ratio were determined using an Electrolab ETD-1020 apparatus using measured values of bulk density (ρbulk) and tapped density (ρtapped) as follows: [formula] [formula]

[3] = Dynamic vapor sorption (DVS); conditions: range 0% RH-95% RH
Description: Crystalline form beta of lanifibranor is also characterized by its dynamic vapor sorption (DVS). […] In some embodiments, the DVS isotherm plot of crystalline form beta of lanifibranor is substantially in accordance with FIG. 4.

Thermogravimetry (TGA) = conditions: temperature range 25-200° C.
Description: Crystalline form beta of lanifibranor is also characterized by its thermogravimetry (TGA) curve. […] Above 250° C., the weight loss observed likely corresponds to degradation. In some embodiments, said TGA curve is substantially in accordance with FIG. 3.

angle of repose [1]: 35 ° | Hausner ratio [2]: 1.26 | compressibility index [2]: 20.64 | maximum uptake (weight variation, DVS) [3]: +0.1%
Structure (SMILES): O=C(O)CCCc1cc2cc(Cl)ccc2n1S(=O)(=O)c1ccc2ncsc2c1 [crystalline form beta of lanifibranor, 1-(6-benzothiazolylsulfonyl)-5-chloro-1H-indole-2-butanoic acid]
weight loss (TGA) (Thermogravimetry (TGA)): does not highlight any significant weight loss
